Where two headings read alike, the source gives them in different places.
Experiments:
Src = biological target: T1, Src (Homo sapiens, UniProt P12931); test: Immunoblotting of whole-cell lysates for pY416Src; type: cell-based; settings: immunoblot, 1 h and 24 h treatment or siRNA knockdown
T1 construct: endogenous in cells; host or cells: Panc-1 and Colo-357 human pancreatic cancer cells
Experimental: (§1) SDS-PAGE/Western Blot Analysis.
(§2) Western blotting analysis was performed as previously described (15, 18). Primary antibodies used were anti-Stat3 (C20) (Santa Cruz, Santa Cruz, Calif.), anti-pY845EGFR (Upstate Biotech, Millipore, Billerica, Mass.), and antibodies against pY705Stat3, Stat3, pY1068EGFR, pY1086EGFR, pY1173EGFR, EGFR, pY416Src, Src, c-Myc, and β-Actin from Cell Signaling (Danvers, Mass.). Inhibitors
Small-Interfering RNA (siRNA) Transfection.
siRNA sequences for EGFR and Src were ordered from Dharmacon RNAi Technologies, Thermo Scientific (Lafayette, Colo.).

Stat3 [1] = test: Stat3 DNA-binding activity, EMSA of nuclear extracts, Panc-1; type: cell-based, human; settings: for constitutive Stat3 DNA-binding activity: Panc-1, 24 h treatment; for constitutively-active Stat3 DNA-binding activity: first 30 min to 1 h of treatment
Experimental: (§3) Nuclear Extract Preparation and Gel Shift Assays.
(§4) Nuclear extract preparation and DNA-binding with electrophoretic mobility shift assay (EMSA) were carried out, as previously reported (14, 15). The ^32P-labeled oligonucleotide probes used were hSIE (high affinity sis-inducible element from the c-fos gene, m67 variant), 5′-[…]; (SEQ ID NO:1) that binds Stat1 and Stat3 (Wagner et al., 1990) and the MGFe (mammary gland factor element from the bovine β-casein gene promoter, 5′-[…]; (SEQ ID NO:2) that binds Stat1 and Stat5 (Gouilleux et al., 1995; Seidel et al., 1995).

Panc-1 or Colo-357 cells = test: Viable cell count by trypan blue exclusion/phase-contrast microscopy; type: cell-based, human
Description: (§5) Cell Proliferation Viability Assay and Annexin V Binding and Flow Cytometry.
(§6) Viable cells were counted by trypan blue exclusion/phase contrast microscopy or assessed by CyQuant cell viability assay, according to manufacturer's (Invitrogen) instructions, or cells were processed for Annexin V binding (BD Biosciences) with flow cytometry for apoptosis.

pErk1/pErk2MAPK and pAkt = test: Immunoblotting for pErk1/pErk2MAPK and pAkt (control studies); type: cell-based, human; settings: Panc-1 and Colo-357 cells (data not shown)
Experimental: as §1, §2

[2] = tested on: Panc-1 and Colo-357 cells; test: CyQuant cell proliferation/viability assay, statements for both lines
Description: as §5, §6

Stat3 [3] = test: Stat3 DNA-binding activity, EMSA of nuclear extracts, Colo-357; type: cell-based, human
Experimental: as §3, §4

[4] = tested on: Panc-1 and Colo-357 cells; test: Colony survival assay; type: cell-based, human; settings: 500 cells per dish, treated once for 48 h
Experimental: Single-cell suspension of Panc-1 and Colo-357 cells were seeded in 6-cm dishes (500 cells per well) and assayed as previously reported (19), treated the next day with inhibitors for 48 h, and allowed to grow until large colonies were visible. Colonies were stained with crystal violet for 4 h and counted under phase-contrast microscope.

Colo-357 cells = test: CyQuant cell proliferation/viability assay, Colo-357; type: cell-based; settings: Homo sapiens
Description: as §5, §6

Panc-1 cells = test: CyQuant cell proliferation/viability assay, Panc-1; type: cell-based; settings: Homo sapiens
Description: as §5, §6

[5] = 1 μM ZD, 100 nM Das, or 50 μM S3I-201 alone, 24 h
[6] = 48-h treatment with each inhibitor alone
[7] = COLO357, inhibitor alone, 48-h treatment, read-out: IC50 against Colo-357 viability
[8] = PANC-1, inhibitor alone, 48-h treatment, read-out: IC50 against Panc-1 viability

T1 sequence (P12931 whole entry): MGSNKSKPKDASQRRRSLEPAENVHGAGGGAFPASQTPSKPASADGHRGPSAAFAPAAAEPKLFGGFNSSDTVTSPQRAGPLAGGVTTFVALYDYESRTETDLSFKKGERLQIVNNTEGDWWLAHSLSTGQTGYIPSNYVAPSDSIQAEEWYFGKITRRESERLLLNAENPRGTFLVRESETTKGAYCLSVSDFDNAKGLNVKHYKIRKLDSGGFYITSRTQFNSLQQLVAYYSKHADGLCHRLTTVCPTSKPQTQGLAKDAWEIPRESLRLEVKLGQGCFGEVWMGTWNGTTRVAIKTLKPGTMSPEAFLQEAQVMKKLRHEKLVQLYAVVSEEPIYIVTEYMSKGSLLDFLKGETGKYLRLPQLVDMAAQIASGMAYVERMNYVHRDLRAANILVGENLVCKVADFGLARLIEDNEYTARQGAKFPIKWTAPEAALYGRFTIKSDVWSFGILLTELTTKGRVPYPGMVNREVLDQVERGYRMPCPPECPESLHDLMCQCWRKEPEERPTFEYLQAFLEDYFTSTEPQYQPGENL

| Structure (SMILES) | constitutive Stat3 DNA-binding activity (Stat3 [1]) | constitutively-active Stat3 DNA-binding activity (Stat3 [1]) | Stat3 DNA-binding activity (Stat3 [3]) | IC50 (Colo-357 cells; [7]) [µM] | IC50 (Panc-1 cells; [8]) [µM] | cell viability (viable cell count) (Panc-1 or Colo-357 cells; [5]) | cell viability (viable cell count) (Panc-1 or Colo-357 cells; treatment for 48 to 96 h) | pErk1/pErk2MAPK and pAkt levels (pErk1/pErk2MAPK and pAkt) | viable cell numbers (fluorescent unit, FU) [2, 6] | colony numbers [4] | further results |
| --- | --- | --- | --- | --- | --- | --- | --- | --- | --- | --- | --- |
| N#C/C(=C\c1ccc(O)c(O)c1)C(=O)NCc1ccccc1 [AG490, Tyrphostin AG490] | abolished | no effect | – | – | – | – | – | – | – | – | – |
| COc1cc2ncnc(Nc3ccc(F)c(Cl)c3)c2cc1OCCCN1CCOCC1 [ZD, Gefitinib] | rebounded | early repression | inhibited | – | – | minimally affected | minimal effect | neither of which was significantly affected | decreased viable cell numbers | not EGFR inhibition (by ZD) resulted in reduced colony numbers | number of viable Panc-1 cells (Panc-1 or Colo-357 cells; ZD, 96 h (Day 4), Panc-1): decreased; cell viability ([2]; 1 μM ZD for 48 h): minimal effect |
| Cc1ccc(S(=O)(=O)OCC(=O)Nc2ccc(C(=O)O)c(O)c2)cc1 [S3I-201] | – | – | – | 45 | 40 | minimally affected | progressively decreased | – | – | reduced colony numbers | IC50 (Colo-357 cells; COLO357, 48 h, read-out: IC50 of S3I-201 on Colo-357 cells): 20 µM; IC50 (Panc-1 cells; PANC-1, 48 h, read-out: IC50 of S3I-201 on Panc-1 cells): 15 µM; viable cell numbers (fluorescent unit, FU) [2]: decreased viable cell numbers; sensitivity of Panc-1 and Colo-357 cells to ZD and Das ([2]; co-treatment with S3I-201, 48 h): increased the sensitivity |
| Cc1nc(Nc2ncc(C(=O)Nc3c(C)cccc3Cl)s2)cc(N2CCN(CCO)CC2)n1 [Das, Dasatinib] | rebounded | early repression | inhibited | 0.09 | 0.1 | minimally affected | progressively decreased | neither of which was significantly affected | decreased viable cell numbers | reduced colony numbers | IC50 (Colo-357 cells; COLO357, read-out: IC50 of Das against Colo-357 viability, concurrent treatment with S3I-201, 48-h treatment): 0.008 µM; IC50 (Panc-1 cells; PANC-1, read-out: IC50 of Das against Panc-1 viability, concurrent treatment with S3I-201, 48-h treatment): 0.006 µM; sensitivity of both cell lines to S3I-201 ([2]; co-treatment with Das or ZD, 48 h): increased the sensitivity |

Continued, in another order:

| constitutive Stat3 DNA-binding activity (Stat3 [1]) | constitutively-active Stat3 DNA-binding activity (Stat3 [1]) | Stat3 DNA-binding activity (Stat3 [3]) | IC50 (Colo-357 cells; [7]) [µM] | IC50 (Panc-1 cells; [8]) [µM] | Structure (SMILES) | cell viability (viable cell count) (Panc-1 or Colo-357 cells; [5]) | cell viability (viable cell count) (Panc-1 or Colo-357 cells; treatment for 48 to 96 h) | pErk1/pErk2MAPK and pAkt levels (pErk1/pErk2MAPK and pAkt) | viable cell numbers (fluorescent unit, FU) [2, 6] | colony numbers [4] | further results |
| --- | --- | --- | --- | --- | --- | --- | --- | --- | --- | --- | --- |
| rebounded | early repression | – | – | – | C=CC(=O)Nc1cc2c(Nc3cccc(Br)c3)ncnc2cc1OCCCN1CCOCC1 [PD169] | – | – | – | – | – | pY416Src level (Src activity) (Src): no detectable changes |
| moderately inhibited | early repression | – | – | – | CC(C)(C)c1cc(/C=C(\C#N)C(N)=S)cc(C(C)(C)C)c1O [AG879] | – | – | – | – | – | – |
